Here are results for 18 molecules from ChEMBL document CHEMBL5244218, “Quinolone derivatives and their activities against methicillin-resistant Staphylococcus aureus (MRSA)” (Eur J Med Chem, 2018).

Data set [1] relates to Staphylococcus aureus. The data set is described as follows: Antimicrobial activity against methicillin-resistant Staphylococcus aureus Mi339 by microbroth dilution method. The class given is functional. (Dilution methods test growth across graded concentrations, often in twofold steps.)
For data set [2], the system named is Staphylococcus aureus. The data set is described as follows: Antimicrobial activity against methicillin-resistant Staphylococcus aureus Mi300 by microbroth dilution method. The class given is functional.
Data set [3] deals with Staphylococcus aureus. The data set is described as follows: Antibacterial activity against methicillin-resistant Staphylococcus aureus isolates by two fold dilution method. The class given is functional.
Data set [4] has as its system Staphylococcus aureus. The data set is described as follows: Antimicrobial activity against methicillin-resistant Staphylococcus aureus assessed as inhibition of bacterial growth by agar dilution method. The class given is functional.
Data set [5] deals with Staphylococcus aureus. The data set is described as follows: Antimicrobial activity against methicillin-resistant Staphylococcus aureus MR101 Mu50 measured after 18 hrs by microplate dilution method. The class given is functional.
Data set [6] has as its system Staphylococcus aureus. The data set is described as follows: Antibacterial activity against methicillin-resistant Staphylococcus aureus infected in mouse model assessed as increase in survival rate relative to control. The data set is classed as functional.
Data set [7] has as its system Staphylococcus aureus. The data set is described as follows: Antibacterial activity against methicillin-resistant Staphylococcus aureus infected in mouse model assessed as reduction in log10CFU in lungs (reference value: 8.47 log10CFU). The data set is classed as functional.
Data set [8] has as its system Staphylococcus aureus. The data set is described as follows: Potency index, ratio of norfloxacin MIC to test compound MIC for antimicrobial activity against methicillin-resistant Staphylococcus aureus. The class given is functional.
Data set [9] concerns Staphylococcus aureus. The data set is described as follows: Antibacterial activity against methicillin-resistant Staphylococcus aureus. The class given is functional.
Data set [10] has as its system Staphylococcus aureus. The data set is described as follows: Antimicrobial activity against hospital acquired methicillin-resistant Staphylococcus aureus incubated for 24 hrs by CLSI protocol based method. The data set is classed as functional.
In data set [11] the test system is Staphylococcus aureus. The data set is described as follows: Antimicrobial activity against community acquired methicillin-resistant Staphylococcus aureus incubated for 24 hrs by CLSI protocol based method. The class given is functional.
Data set [12] relates to Staphylococcus aureus. The data set is described as follows: Antimicrobial activity against methicillin-resistant Staphylococcus aureus isolates by agar dilution method. The data set is classed as functional. (Agar dilution tests growth on a series of plates holding different concentrations.)
The test system of data set [13] is Staphylococcus aureus. The data set is described as follows: Potency index, ratio of ciprofloxacin MIC to test compound MIC for antimicrobial activity against methicillin-resistant Staphylococcus aureus clinical isolate 1. The data set is classed as functional.
For data set [14], the system named is Staphylococcus aureus. The data set is described as follows: Potency index, ratio of ciprofloxacin MIC to test compound MIC for antimicrobial activity against methicillin-resistant Staphylococcus aureus clinical isolate 2. The data set is classed as functional.
The subject of data set [15] is Staphylococcus aureus. The data set is described as follows: Antimicrobial activity against methicillin-resistant Staphylococcus aureus clinical isolate 2 measured after 18 hrs by agar dilution method. The data set is classed as functional.
In data set [16] the test system is Staphylococcus aureus. The data set is described as follows: Antimicrobial activity against methicillin-resistant Staphylococcus aureus clinical isolate 1 measured after 18 hrs by agar dilution method. The class given is functional.
The test system of data set [17] is Staphylococcus aureus. The data set is described as follows: Potency index, ratio of norfloxacin MIC to test compound MIC for antimicrobial activity against methicillin-resistant Staphylococcus aureus clinical isolate 1. The class given is functional.
The test system of data set [18] is Staphylococcus aureus. The data set is described as follows: Potency index, ratio of norfloxacin MIC to test compound MIC for antimicrobial activity against methicillin-resistant Staphylococcus aureus clinical isolate 2. The class given is functional.
The subject of data set [19] is Staphylococcus aureus. The data set is described as follows: Antimicrobial activity against fluoroquinolone-resistant Staphylococcus aureus assessed as inhibition of bacterial growth at 0.5 ug/ml relative to control. The data set is classed as functional. On the set-up: scale not given: the % may be the effect or the level left. To be noted: dose 0.5 µg/ml.
Data set [20] has as its system Staphylococcus aureus. The data set is described as follows: Antimicrobial activity against methicillin-resistant Staphylococcus aureus assessed as inhibition of bacterial growth at 0.5 ug/ml relative to control. The data set is classed as functional. On the set-up: scale not given: the % may be the effect or the level left. Conditions: dose 0.5 µg/ml.
Data set [21] can be described thus: Cytotoxicity against human HEK293 cells incubated for 72 hrs by MTT assay. The data set is classed as toxicity, cell-based.
Data set [22] deals with Staphylococcus aureus. The data set is described as follows: Antimicrobial activity against methicillin-resistant Staphylococcus aureus. The class given is functional, organism-based.
The nature of data set [23]: Cytotoxicity against African green monkey Vero cells. Conditions: chlorocebus sabaeus. The data set is classed as toxicity, cell-based.
Data set [24] has as its system Staphylococcus aureus. The data set is described as follows: Antimicrobial activity against methicillin-resistant Staphylococcus aureus by agar dilution method. The class given is functional.
The nature of data set [25]: Permeability coefficient of compound. To be noted: not told; read-out: Kp (converted). The data set is classed as ADME.
The subject of data set [26] is Staphylococcus aureus. The data set is described as follows: Antimicrobial activity against methicillin-resistant Staphylococcus aureus assessed as inhibition of microbial growth at 15.63 ug/ml relative to control. The data set is classed as functional. Also on record: scale not given: the % may be the effect or the level left. Conditions: dose 15.63 µg/ml.

In brackets after ≈: the same amount, converted by molar mass.

With `C[C@@H](O)[C@H]1C(=O)N2C(C(=O)O)=C(COC(=O)N3CCN(c4cc5c(cc4F)c(=O)c(C(=O)O)cn5C4CC4)CC3)S[C@H]12`, the MIC against Staphylococcus aureus [1] and with Staphylococcus aureus [2] was 0.06 µg/mL (≈ 0.0996 µM) each time.

The molecule `CC1CN(c2c(F)cc3c(=O)c(C(=O)O)c4scc5n4c3c2N(C)C5)CCN1C` (centres undefined) registered an MIC with Staphylococcus aureus [3] of 0.05 µg/mL (≈ 0.12 µM).

Turning to `C[C@H]1CCc2c(N3CCC(O)CC3)c(F)cc3c(=O)c(C(=O)O)cn1c23.N=C(N)NCCC[C@H](N)C(=O)O.O.O.O.O`, the minimal inhibitory concentration (MIC) in the data set with Staphylococcus aureus [4] worked out at 1 µg/mL.

As to `CC(=O)N[C@@H]1[C@H](Oc2c3cc4cc2Oc2ccc(cc2Cl)[C@@H](O[C@@H]2O[C@@H](CO)[C@@H](O)[C@H](O)[C@@H]2NC(C)=O)[C@@H]2NC(=O)[C@H](NC(=O)[C@@H]4NC(=O)[C@H]4NC(=O)[C@@H](Cc5ccc(c(Cl)c5)O3)NC(=O)[C@H](N)c3ccc(O)c(c3)Oc3cc(O)cc4c3)c3ccc(O)c(c3)-c3c(O[C@H]4O[C@H](CO)[C@@H](O)[C@@H](O)[C@@H]4O)cc(O)cc3[C@@H](C(=O)O)NC2=O)O[C@@H](CO)[C@@H](O)[C@@H]1O`, inhibition of growth in the data set on Staphylococcus aureus [5] (MIC) required 0.5 µg/mL (≈ 0.283 µM). The results for the Activity in the data set with Staphylococcus aureus [6] and in the data set on Staphylococcus aureus [7] were 45% and 7.36 log10CFU, respectively.

Take `CCOC(=O)c1cn(CC(O)Cn2cncn2)c2c(Cl)cc(Cl)cc2c1=O` (centres undefined): in the data set with Staphylococcus aureus [8], the Ratio is recorded as 8. The molecule also registered an MIC in the data set with Staphylococcus aureus [9] of 1 µg/mL (≈ 2.43 µM).

With `O=C(O)c1cn(CC(O)Cn2cncn2)c2ccc(F)cc2c1=O` (centres undefined), the Ratio in the data set with Staphylococcus aureus [8] was determined as 8. In the data set with Staphylococcus aureus [9], this molecule displayed a minimum inhibitory concentration (MIC) of 1 µg/mL (≈ 3.01 µM).

Regarding `O=C(O)c1cn(CC(O)Cn2cncn2)c2cc(C(F)(F)F)ccc2c1=O` (centres undefined), in the data set with Staphylococcus aureus [8], the Ratio is listed as 8. The MIC against Staphylococcus aureus [9] is 1 µg/mL (≈ 2.62 µM).

As for `Cc1c(N2CC(NC(C)C)C2)c(F)cc2c(=O)c(C(=O)O)cn(-c3nc(N)c(F)cc3F)c12`, the MIC90 with Staphylococcus aureus [10] and against Staphylococcus aureus [11] was 0.06 µg/mL (≈ 0.13 µM) in each case.

The molecule `CCOC(=O)c1ccc(NC2CN(c3c(F)cc4c(=O)c(C(=O)O)cn(C5CC5)c4c3F)C2)cc1` returned an MIC against Staphylococcus aureus [12] of 0.016 µg/mL (≈ 0.0331 µM).

Turning to `O=C(O)c1cn(C2CC2)c2cc(N3CCN(C/C(=N/O)c4ccco4)CC3)c(F)cc2c1=O`, the Ratio is 2 in the data set with Staphylococcus aureus [13], 2 in the data set on Staphylococcus aureus [14], 4 in the data set with Staphylococcus aureus [17] and 4 in the data set with Staphylococcus aureus [18]. Besides, the MIC in the data set on Staphylococcus aureus [15] and with Staphylococcus aureus [16] was 0.19 µg/mL (≈ 0.418 µM) in each case.

Take `COc1c(N2CC[C@@H](C3(C)CC3)C2)c(F)cc2c(=O)c(C(=O)O)cn([C@@H]3C[C@@H]3F)c12`: the Activity in the data set with Staphylococcus aureus [19] and in the data set with Staphylococcus aureus [20] was 90% throughout.

With `O=C(O)c1cn(C2CC2)c2cc(N3CCN(C/C(=N/O)c4cccs4)CC3)c(F)cc2c1=O`, the Ratio in the data set on Staphylococcus aureus [13] is reported as 2; with Staphylococcus aureus [14] it was 2; in the data set on Staphylococcus aureus [17] it was 4; in the data set with Staphylococcus aureus [18], 4. Moreover, the MIC against Staphylococcus aureus [15] and in the data set with Staphylococcus aureus [16] was 0.19 µg/mL (≈ 0.404 µM) throughout.

Molecule `COc1ccc(Cn2c(-c3ccccc3O)nn(CN3CCN(c4c(F)cc5c(=O)c(C(=O)O)cn(C6CC6)c5c4Cl)CC3)c2=S)cc1` registered an EC50 at 72 h in [21] of 50.5 µM.

Molecule `CO/N=C1\CCN(c2nc3c(cc2F)c(=O)c(C(=O)O)cn3C2CC2)CC1(C)CN` (centres undefined) displayed an MIC against Staphylococcus aureus [22] of 8 µg/mL (≈ 19.2 µM). The molecule also returned a CC50 in [23] of 177 µg/mL (≈ 423 µM).

For the molecule `C[C@@H](O)[C@H]1C(=O)N2C(C(=O)O)=C(COC(=O)N[C@H]3CCC(c4c(F)cc5c(=O)c(C(=O)O)cn(C6CC6)c5c4F)C3)S[C@H]12` (some centres undefined), the MIC was 4 µg/mL (≈ 6.46 µM) in the data set with Staphylococcus aureus [1] and at most 0.06 µg/mL in the data set on Staphylococcus aureus [2].

In turn, `CNCC1(C)CN(c2nc3c(cc2F)c(=O)c(C(=O)O)cn3C2CC2)CC/C1=N\OC` (centres undefined) displayed an MIC against Staphylococcus aureus [24] of 64 µg/mL (≈ 148 µM).

With `CCOC(=O)c1cn(C2CC2)c2cc(N3CCNCC3)ccc2c1=O`, in [25], the Papp was 0.106 ×10⁻⁶ cm/s. Besides, the Activity with Staphylococcus aureus [26] was 80%.

`O=C(O)c1cn(C2CC2)c2c(Cl)c(N3CCN(Cn4nc(-c5ccccc5O)n(Cc5ccc(F)cc5)c4=S)CC3)c(F)cc2c1=O` returned an EC50 at 72 h in data set [21] of 50.5 µM.

For orientation: MIC means the lowest concentration found to suppress growth. Usually MIC90 stands for the lowest concentration that inhibits either 90% of growth or 90% of the strains tested, depending on the study. For orientation: EC50 means the concentration needed to bring the measured effect to its halfway point. As a reminder, the CC50 is the concentration that lowers cell viability or growth by half.
